Patent publication US9458194B2, “Compounds useful in the treatment and/or care of the skin and their cosmetic or pharmaceutical compositions” (Lubrizol Advanced Materials, Inc., priority 2013, dated 2016)
Several values for one entry are separate records, joined by “and”; a condition that tells them apart may be missing. Equal values may be shown once.

Tests used:
[1] = system: human LOXL1 gene promoter; assay: Luminescence assay of human LOXL1 gene promoter activation (Renilla luciferase); assay type: cell-based; conditions: 16-24 hours
Method: The effect of the compounds of the invention on the activity of the fibulin-5 and LOXL1 promoters was studied and compared to the levels of basal expression of the untreated cells (negative control) and with the effect of Interleukin-1β (IL-1β) in the same conditions.
Cells from an epithelial cell line doubly transfected with fibulin-5 and LOXL1 human promoters in which the luciferase gene is under the regulatory control of said promoters (4×10^4 cells/well) were seeded in a white plate and in a 96-well transparent plate, both treated with polylysine, and were incubated in Dulbecco's Modified Eagle Medium (DMEM-Glutamax™), with 10% of FBS, 1% Penicillin-Streptomycin (P/S), 1 mg/ml of Geneticin® (G418) and […] at 37° C. in at atmosphere with 5% CO2. After the incubation, the cells were incubated for 6 hours at 37° C. in at atmosphere with 5% CO2 with DMEM without serum. Then, this medium was removed and the cells were treated with different compounds at 0.1 mg/ml, 0.5 mg/ml, 1 mg/ml or 2 mg/mL in DMEM/1% FBS for 16-24 hours. As a positive control to activate the fibulin-5 and LOXL1 promoters 10 ng/ml of IL-1β were used and as a negative control untreated cells were used, just with DMEM/1% FBS. The incubations and treatments were carried out in parallel in the white plate and the transparent plate and in triplicate for each condition. After the treatment, the relative light units per second were determined (RLU/s) in the white plate by means of consecutive quantification of the activities of Firefly luciferase (fibulin-5 promoter) and Renilla luciferase (LOXL1 promoter), and the number of total cells/well in the transparent plate by means of staining with Crystal Violet (CV). To determine the Firefly and Renilla luciferase activities the Dual-Glo Luciferase Assay System kit by Promega was used. The cells were briefly lysed and the Firefly luciferase substrate was added. After incubating for 10 min at 25° C., the RLU/s were quantified by luminescence reader (Lumistar-BMG). Then the Firefly signal was extinguished and the Renilla luciferase substrate was added. After incubating for 5 min at 25° C., the RLU/s were quantified by the same luminescence reader. With regard to the determination of the total number of cells by Crystal Violet, the CV dyes the DNA of the cells and the quantity of dye taken by the cells can be measured in an absorbency reader at 630 nm (Multiskan Ascent). The color obtained is directly proportional to the total number of cells per well. The cells were briefly incubated with 0.05% CV plus 4% Formalin for 20 minutes and after several washes with Milli-Q water, the cells were left to dry for 1-2 hours and then 0.1 M of HCl was added for its immediate reading. The RLU/s of the luciferases corresponding to each promoter were normalized by the average of the total number of cells per condition. Three independent assays with 3 measurements per assay were carried out for Ac-L-Asp-L-Val-L-Lys-L-Tyr-OH at 0.1 mg/mL and 1 mg/mL. 1 assay with 3 measurements was carried out for the other compounds and concentrations.
The increase in the activity of the promoters with regard to the levels of expression of the negative control was determined.

elastin = assay: Elastin synthesis in human dermal fibroblasts (Fastin Elastin Assay); assay type: cell-based; conditions: 0.01 μg/ml, 48 hours, vs negative control
Method: Stimulation of elastin synthesis induced by Ac-L-Asp-L-Val-L-Lys-L-Tyr-OH was evaluated by means of a quantitative method of staining, Fastin Elastin Assay (Tebu-Bio). Human dermal fibroblasts were trypsinized and seeded at a density of 7×10^4 cells/well in 6-well plates. After 72 hours of incubation at 37° C., 5% CO2, with a humidified atmosphere, a new medium was added with 0.01 μg/mL Ac-L-Asp-L-Val-L-Lys-L-Tyr-OH. Untreated cells were used as negative controls and cells treated with TGF-1β (Peprotech) were used as positive controls. The cells were incubated for an additional 48 hours at 37° C., 5% CO2, with humidified atmosphere. Subsequently, the elastin was solubilized and extracted, for which the cells were washed twice with PBS (Sigma) and a solution was added to uncouple the cells (Cell Dissociation Solution, Sigma). The suspension of cells was transferred to centrifuge tubes, 1 M Oxalic Acid was added provided by the kit and they were incubated at 100° C. for 1 hour. Once the elastin became soluble, a calibration curve was prepared with the elastin provided with the kit. From that point, the samples and dilutions of the calibration curve were processed following the kit instructions to isolate and stain the elastin. Lastly, the dye was extracted and the absorbency reading was carried out at a wave length of 540 nm in a TECAN GENios spectrophotometric reader.

Increase in the activity of the human promoter of the LOXL1 gene with regard to the negative control ([1]; 0.1 mg/mL): 7.12%
Increase in the activity of the human promoter of the LOXL1 gene with regard to the negative control ([1]; 1 mg/mL): 27% and 27.06%
Increase in the activity of the human promoter of the LOXL1 gene with regard to the negative control ([1]; 2 mg/mL): 10.41%
Substance: Ac-L-Asp-L-Val-L-Lys-L-Tyr-OH (Ac-DVKY-OH)
INCREASE IN ELASTIN SYNTHESIS (elastin): 21.7%
